Several values for one entry are separate records, joined by “and”; a condition that tells them apart may be missing. Identical values can stand only once.
Tests used:
[1] = target: androgen receptor (Homo sapiens, UniProt P10275); experiment: cell-based; assay type: cell-based
Method: Human MDA-MB-453 cells were used in this assay. The cells in the exponential phase of growth (cultured in RPMI 1640 medium (Gibco, USA), 10% FBS) were washed off with 1 ml of 0.05% trypsin, centrifuged and collected in a centrifuge tube. 1×10^7 cells were resuspended in 270 μl BES medium (5 mM BES in RPMI 1640 medium) and 8 to 10 μg of pPSA-SEAP2 plasmid (see FIG. 4) were also added to the medium.
25 μl of media were retrieved from each cell of the 96-well plate and heated in a 65° C. water bath for 30 minutes. The media were then treated by Phospha-Light™ assay system (Applied Biosystem) in order to detect the secreted alkaline phosphatase (SEAP) reporter protein. The intensity of luminescence was detected by Victor™ Light luminescence counter to determine the activity of the samples in the modulation of the androgen receptor.
Human MDA-MB-453 cells were used in this assay. The cells in the exponential phase of growth (cultured in RPMI 1640 medium (Gibco), 10% FBS) were washed off with 1 ml of 0.05% trypsin, centrifuged and collected in a centrifuge tube. 1×10^7 cells were resuspended in 270 μl BES medium (5 mM BES in RPMI 1640 medium) and 8 to 10 μg of pPSA-SEAP2 plasmid (see FIG. 4) were also added to the medium.

[2] = system: Prostate specific antigen (PSA) secretion in LNCap.FGC cells; experiment: cells; details: for PSA concentration: 48 hours
From the text: Prostate specific antigen (PSA) is a protein secreted by the […] cells of prostate. PSA facilitates semen liquification and presents in male serum in minute amount. In the serum of male subjects suffering from prostate cancer, benign prostatic hyperplasia or prostatic infection, the quantity of PSA presented in serum may increase. Therefore, PSA is so far the most valuable marker in screening and diagnosing prostate tumors. PSA also plays an important role in determining a cancer's stage of development and evaluating the effect of treatment. The amounts of PSA were determined by using Prostate Specific Antigen ELISA kit (Cat. No. BQ067T, Bio Quant, USA). […] 50 μl of each of the retrieved culture media and 50 μl of each of the standard PSA of 0, 2, 4, 8, 25, and 50 ng/ml were added to the wells of a 96-well plate, respectively. Then, 50 μl assay buffer was further added to the wells, and the plate was incubated at room temperature in the dark for 30 minutes. The supernatant was removed and the wells were washed three times with 300 μl wash buffer. […] The supernatant was removed and the wells and washed three times with 300 μl wash buffer. […] Within 15 minutes after completion of the previous step, the wells were examined by a ELISA Reader at 450 nm.

[3] = system: LNCap.FGC cells; details: MTT, 72 hours, up to 20 μM
Method: (§1) The survive rate of cell was determined by the MTT (3-(4,5-dimethyl-2-thiazolyl)-2,5-diphenyl tetrazolium bromide) method.
(§2) The supernatant of the culture was removed.

[4] = system: MRC-5, MCF-7, HepG2, AGS, HeLa, HEK 293 cells; details: MTT, 72 hours, up to 20 μM
Method: as §1, §2

Chain of androgen receptor (P10275 whole entry, looked up): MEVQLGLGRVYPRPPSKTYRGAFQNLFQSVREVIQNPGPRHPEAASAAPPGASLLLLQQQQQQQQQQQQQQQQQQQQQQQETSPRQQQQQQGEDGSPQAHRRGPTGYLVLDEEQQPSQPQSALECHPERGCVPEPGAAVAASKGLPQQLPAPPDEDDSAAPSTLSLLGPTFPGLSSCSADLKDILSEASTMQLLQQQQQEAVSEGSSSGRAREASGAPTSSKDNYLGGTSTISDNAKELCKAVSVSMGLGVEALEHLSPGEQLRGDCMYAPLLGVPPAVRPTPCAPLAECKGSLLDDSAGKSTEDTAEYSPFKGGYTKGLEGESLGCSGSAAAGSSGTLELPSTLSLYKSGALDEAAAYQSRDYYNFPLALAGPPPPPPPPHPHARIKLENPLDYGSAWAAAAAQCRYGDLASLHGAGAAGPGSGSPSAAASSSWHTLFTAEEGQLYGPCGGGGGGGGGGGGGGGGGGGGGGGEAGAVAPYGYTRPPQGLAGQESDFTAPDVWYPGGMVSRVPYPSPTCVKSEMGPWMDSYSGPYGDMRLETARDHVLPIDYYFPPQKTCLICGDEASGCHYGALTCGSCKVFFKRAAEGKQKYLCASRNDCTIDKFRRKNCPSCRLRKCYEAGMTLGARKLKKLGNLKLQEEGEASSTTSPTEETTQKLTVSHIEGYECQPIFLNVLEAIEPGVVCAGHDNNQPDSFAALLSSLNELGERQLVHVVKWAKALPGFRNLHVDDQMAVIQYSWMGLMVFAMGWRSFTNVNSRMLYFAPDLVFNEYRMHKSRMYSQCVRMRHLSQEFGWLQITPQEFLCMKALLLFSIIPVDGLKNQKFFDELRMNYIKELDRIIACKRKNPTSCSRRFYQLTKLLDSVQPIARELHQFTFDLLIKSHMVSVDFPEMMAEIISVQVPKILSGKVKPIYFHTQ

C/C=C/C1=CC2=C(CO1)C(=O)[C@]1(C)OC(=O)[C@H](C(=O)CCCCCCC)[C@H]1C2 [ankaflavin]
inhibition at 26 µM ([1]; MDA-MB-453, read-out: inhibition of the reporter activity): 41%

C/C=C/C1=CC2=C(CO1)C(=O)[C@]1(C)OC(=O)[C@H](C(=O)CCCCC)[C@H]1C2 [monascin]
inhibition of the reporter activity [1]: 55%

C/C=C/C1=CC2=C(CO1)C(=O)[C@]1(C)OC(=O)[C@H]([C@@H](O)CCCCC)[C@H]1C2 [monascuspiloin, (3S,3aR,9aR)-3a,4-dihydro-3-((S)-1-hydroxyhexyl)-9a-methyl-6-((E)-prop-1-enyl)-3H-furo [3,2-g]isochromene-2,9(8H,9aH)-dione]
PSA concentration ([2]; DHT 5 nM + Monascuspiloin 5 μM): 10.27 ng/mL
PSA concentration ([2]; DHT 5 nM + Monascuspiloin 10 μM): 9.71 ng/mL
PSA concentration ([2]; DHT 5 nM + Monascuspiloin 25 μM): 8.77 ng/mL
inhibition at 20 µM ([2]; Homo sapiens, read-out: inhibition of the production of PSA induced by DHT): 43%
IC50 ([1]; read-out: IC50 for inhibition of the activation of the androgen receptor): ~12 µM and 12 µM
cytotoxic effect on LNCap.FGC [3]: does not have a significant cytotoxic effect
cytotoxic effect on the other 6 non-human-prostate-cancer cell lines [4]: does not have a significant cytotoxic effect

C[C@]12CCC(=O)C[C@@H]1CC[C@@H]1[C@@H]2CC[C@]2(C)[C@@H](O)CC[C@@H]12 [DHT, 5α-dihydrotestosterone, reference compound]
PSA concentration ([2]; DHT 5 nM alone): 12.61 ng/mL
